Measured values as given in the NIST ThermoML archive (doi:10.1021/je200883w).
± gives the expanded uncertainty stated by the source.

Conditions: 101.33 kPa, Liquid; for viscosity: Concentric cylinders viscometry; for mass density: Vibrating tube method

CCCC[N+]1(C)CCCC1.O=S(=O)([N-]S(=O)(=O)C(F)(F)F)C(F)(F)F
Conditions	mass density [kg/m3]	viscosity [mPa·s]
278.15 K	1412.9 ± 1.9	230.3 ± 7.2
283.15 K	1408.3 ± 1.9	169.6 ± 5
288.15 K	1403.8 ± 1.9	128 ± 3.5
293.15 K	1399.3 ± 1.9	98.74 ± 2.6
298.15 K	1394.9 ± 1.9	77.65 ± 1.9
303.15 K	1390.5 ± 1.9	62.14 ± 1.5
308.15 K	1386.1 ± 1.9	50.52 ± 1.2
313.15 K	1381.8 ± 1.9	41.65 ± 0.99
318.15 K	1377.4 ± 1.9	34.78 ± 0.82
323.15 K	1373 ± 1.8	29.38 ± 0.69
328.15 K	1368.7 ± 1.8	25.07 ± 0.59
333.15 K	1364.3 ± 1.8	21.6 ± 0.5
338.15 K	1360 ± 1.8	18.77 ± 0.44
343.15 K	1355.7 ± 1.8	16.44 ± 0.38
348.15 K	1351.4 ± 1.8	14.5 ± 0.34
353.15 K	1346.9 ± 1.8	12.87 ± 0.3
358.15 K	1342.5 ± 1.8	11.5 ± 0.27
363.15 K	1338.3 ± 1.8	10.33 ± 0.24
368.15 K	1334.3 ± 1.8	9.32 ± 0.21
373.15 K	1330.3 ± 1.8	8.454 ± 0.19

CCCCn1cc[n+](C)c1C.O=S(=O)([N-]S(=O)(=O)C(F)(F)F)C(F)(F)F
Conditions	mass density [kg/m3]	viscosity [mPa·s]
273.15 K	1443.3 ± 2	518.55 ± 20
278.15 K	1438.4 ± 2	353.44 ± 13
283.15 K	1433.5 ± 2	249.26 ± 8.2
288.15 K	1428.7 ± 2	180.5 ± 5.5
293.15 K	1424 ± 2	134.22 ± 3.8
298.15 K	1419.4 ± 1.9	102.19 ± 2.7
303.15 K	1414.8 ± 1.9	79.46 ± 2
308.15 K	1410.1 ± 1.9	62.97 ± 1.5
313.15 K	1405.5 ± 1.9	50.76 ± 1.2
318.15 K	1401 ± 1.9	41.53 ± 0.99
323.15 K	1396.4 ± 1.9	34.45 ± 0.82
328.15 K	1391.8 ± 1.9	28.91 ± 0.68
333.15 K	1387.3 ± 1.9	24.54 ± 0.58
338.15 K	1382.8 ± 1.9	21.03 ± 0.49
343.15 K	1378.4 ± 1.9	18.17 ± 0.42
348.15 K	1373.9 ± 1.9	15.83 ± 0.37
353.15 K	1369.3 ± 1.8	13.9 ± 0.32
358.15 K	1364.4 ± 1.8	12.3 ± 0.28
363.15 K	1359.8 ± 1.8	10.94 ± 0.25
368.15 K	1355.5 ± 1.8	9.794 ± 0.23
373.15 K	1351.3 ± 1.8	8.813 ± 0.2

CCCCCCOS(=O)(=O)[O-].CC[n+]1ccn(C)c1 [3-ethyl-1-methyl-1H-imidazolium hexyl sulfate]
Conditions	mass density [kg/m3]	viscosity [mPa·s]
268.15 K	1151.4 ± 1.5	3425.9 ± 200
273.15 K	1147.9 ± 1.5	2124.1 ± 120
278.15 K	1144.4 ± 1.4	1362.1 ± 68
283.15 K	1140.9 ± 1.4	904.77 ± 41
288.15 K	1137.4 ± 1.4	620.25 ± 25
293.15 K	1133.8 ± 1.4	437.53 ± 16
298.15 K	1130.4 ± 1.4	316.78 ± 11
303.15 K	1127 ± 2	234.83 ± 7.4
308.15 K	1123.7 ± 1.4	177.81 ± 5.2
313.15 K	1120.5 ± 1.4	137.23 ± 3.8
318.15 K	1117.2 ± 1.4	107.82 ± 2.8
323.15 K	1114 ± 2	86.06 ± 2.1
328.15 K	1110.8 ± 1.4	69.71 ± 1.7
333.15 K	1107.6 ± 1.4	57.21 ± 1.4
338.15 K	1104.4 ± 1.4	47.52 ± 1.1
343.15 K	1101.2 ± 1.4	39.91 ± 0.94
348.15 K	1097.9 ± 1.4	33.86 ± 0.79
353.15 K	1094.5 ± 1.4	29 ± 0.68
358.15 K	1091.2 ± 1.4	25.04 ± 0.58
363.15 K	1088.1 ± 1.4	21.8 ± 0.51
368.15 K	1085.1 ± 1.4	19.11 ± 0.44
373.15 K	1082.3 ± 1.4	16.87 ± 0.39

CCCC[N+]1(C)CCCC1.O=S(=O)([O-])C(F)(F)F [1-butyl-1-methylpyrrolidinium trifluoromethanesulfonate]
Conditions	mass density [kg/m3]	viscosity [mPa·s]
283.15 K	1263.6 ± 1.6	414.9 ± 15
288.15 K	1259.9 ± 1.6	299.4 ± 10
293.15 K	1256.1 ± 1.6	221.7 ± 6.9
298.15 K	1252.4 ± 1.6	167.87 ± 4.9
303.15 K	1248.7 ± 1.6	129.71 ± 3.5
308.15 K	1245.1 ± 1.6	102.06 ± 2.6
313.15 K	1241.5 ± 1.6	81.62 ± 2
318.15 K	1238 ± 1.6	66.24 ± 1.6
323.15 K	1234.4 ± 1.6	54.48 ± 1.3
328.15 K	1230.8 ± 1.6	45.34 ± 1.1
333.15 K	1227.3 ± 1.6	38.16 ± 0.9
338.15 K	1223.8 ± 1.6	32.45 ± 0.76
343.15 K	1220.3 ± 1.6	27.84 ± 0.65
348.15 K	1216.8 ± 1.6	24.08 ± 0.56
353.15 K	1213.3 ± 1.6	21 ± 0.49
358.15 K	1209.7 ± 1.6	18.44 ± 0.43
363.15 K	1205.9 ± 1.5	16.29 ± 0.38
368.15 K	1202.5 ± 1.5	14.48 ± 0.33
373.15 K	1199.2 ± 1.5	12.95 ± 0.3

CCCCCCCCCCCCCC[P+](CCCCCC)(CCCCCC)CCCCCC.FC(F)(F)C(F)(F)[P-](F)(F)(F)(C(F)(F)C(F)(F)F)C(F)(F)C(F)(F)F
Conditions	mass density [kg/m3]	viscosity [mPa·s]
268.15 K	1207.4 ± 1.5	3067.3 ± 180
273.15 K	1203.2 ± 1.5	2010 ± 110
278.15 K	1198.9 ± 1.5	1345.2 ± 66
283.15 K	1194.6 ± 1.5	928.39 ± 42
288.15 K	1190.3 ± 1.5	654.2 ± 27
293.15 K	1186 ± 1.5	471.76 ± 18
298.15 K	1181.7 ± 1.5	347.06 ± 12
303.15 K	1177.6 ± 1.5	260.12 ± 8.4
308.15 K	1173.5 ± 1.5	198.3 ± 6
313.15 K	1169.4 ± 1.5	153.61 ± 4.3
318.15 K	1165.3 ± 1.5	120.76 ± 3.2
323.15 K	1161.3 ± 1.5	96.23 ± 2.4
328.15 K	1157.3 ± 1.5	77.68 ± 1.9
333.15 K	1153.3 ± 1.5	63.45 ± 1.5
338.15 K	1149.3 ± 1.5	52.39 ± 1.2
343.15 K	1145.3 ± 1.4	43.71 ± 1
348.15 K	1141.2 ± 1.4	36.8 ± 0.87
353.15 K	1137 ± 1.4	31.27 ± 0.73
358.15 K	1132.7 ± 1.4	26.79 ± 0.63
363.15 K	1128.7 ± 1.4	23.12 ± 0.54
368.15 K	1124.9 ± 1.4	20.09 ± 0.47
373.15 K	1121.1 ± 1.4	17.57 ± 0.41

COCC[N+]1(C)CCCC1.O=S(=O)([N-]S(=O)(=O)C(F)(F)F)C(F)(F)F
Conditions	mass density [kg/m3]	viscosity [mPa·s]
258.15 K	1494.1 ± 2.1	620.3 ± 25
263.15 K	1488.7 ± 2.1	412.3 ± 16
268.15 K	1483.6 ± 2.1	286.4 ± 9.8
273.15 K	1478.5 ± 2.1	204.56 ± 6.4
278.15 K	1473.7 ± 2.1	149.89 ± 4.3
283.15 K	1468.8 ± 2	112.96 ± 3
288.15 K	1464 ± 2	87.14 ± 2.2
293.15 K	1459.3 ± 2	68.61 ± 1.7
298.15 K	1454.7 ± 2	55.06 ± 1.3
303.15 K	1450 ± 2	44.9 ± 1.1
308.15 K	1445.2 ± 2	37.15 ± 0.88
313.15 K	1440.5 ± 2	31.15 ± 0.73
318.15 K	1435.9 ± 2	26.43 ± 0.62
323.15 K	1431.2 ± 2	22.66 ± 0.53
328.15 K	1426.6 ± 2	19.59 ± 0.46
333.15 K	1422 ± 1.9	17.09 ± 0.4
338.15 K	1417.4 ± 1.9	15.03 ± 0.35
343.15 K	1412.9 ± 1.9	13.32 ± 0.31
348.15 K	1408.2 ± 1.9	11.88 ± 0.27
353.15 K	1403.3 ± 1.9	10.66 ± 0.24
358.15 K	1398.6 ± 1.9	9.617 ± 0.22
363.15 K	1394.2 ± 1.9	8.718 ± 0.2
368.15 K	1389.9 ± 1.9	7.94 ± 0.18
373.15 K	1385.7 ± 1.9	7.263 ± 0.17

CCCC[N+]1(C)CCCC1.FC(F)(F)C(F)(F)[P-](F)(F)(F)(C(F)(F)C(F)(F)F)C(F)(F)C(F)(F)F
Conditions	mass density [kg/m3]	viscosity [mPa·s]
283.15 K	1599.8 ± 2.4	593.7 ± 24
288.15 K	1594.2 ± 2.3	409.8 ± 15
293.15 K	1588.6 ± 2.3	291.5 ± 9.9
298.15 K	1583.2 ± 2.3	213.1 ± 6.7
303.15 K	1577.9 ± 2.3	159.61 ± 4.6
308.15 K	1572.6 ± 2.3	122.18 ± 3.3
313.15 K	1567.4 ± 2.3	95.36 ± 2.4
318.15 K	1562.1 ± 2.3	75.75 ± 1.9
323.15 K	1556.9 ± 2.3	61.13 ± 1.5
328.15 K	1551.7 ± 2.2	50.03 ± 1.2
333.15 K	1546.6 ± 2.2	41.48 ± 0.98
338.15 K	1541.5 ± 2.2	34.79 ± 0.82
343.15 K	1536.3 ± 2.2	29.49 ± 0.69
348.15 K	1531.1 ± 2.2	25.24 ± 0.59
353.15 K	1525.7 ± 2.2	21.79 ± 0.51
358.15 K	1520.4 ± 2.2	18.97 ± 0.44
363.15 K	1515.3 ± 2.2	16.63 ± 0.39
368.15 K	1510.4 ± 2.1	14.68 ± 0.34
373.15 K	1505.5 ± 2.1	13.04 ± 0.3

CCOS(=O)(=O)[O-].CCn1cc[n+](C)c1 [1-ethyl-3-methylimidazolium ethyl sulfate]
Conditions	mass density [kg/m3]	viscosity [mPa·s]
253.15 K	1270.6 ± 1.7	3146.4 ± 190
258.15 K	1266.9 ± 1.6	1789.6 ± 97
263.15 K	1263.3 ± 1.6	1094.4 ± 53
268.15 K	1259.5 ± 1.6	700.85 ± 30
273.15 K	1255.7 ± 1.6	466.03 ± 18
278.15 K	1252 ± 1.6	321.37 ± 11
283.15 K	1248.3 ± 1.6	229.15 ± 7.4
288.15 K	1244.8 ± 1.6	168.31 ± 5
293.15 K	1241.3 ± 1.6	126.89 ± 3.5
298.15 K	1237.8 ± 1.6	97.84 ± 2.5
303.15 K	1234.4 ± 1.6	77.01 ± 1.9
308.15 K	1231 ± 1.6	61.71 ± 1.5
313.15 K	1227.6 ± 1.6	50.25 ± 1.2
318.15 K	1224.2 ± 1.6	41.51 ± 0.99
323.15 K	1220.8 ± 1.6	34.73 ± 0.82
328.15 K	1217.4 ± 1.6	29.4 ± 0.69
333.15 K	1214 ± 1.6	25.15 ± 0.59
338.15 K	1210.6 ± 1.6	21.72 ± 0.51
343.15 K	1207.2 ± 1.5	18.91 ± 0.44
348.15 K	1203.8 ± 1.5	16.6 ± 0.38
353.15 K	1200.4 ± 1.5	14.68 ± 0.34
358.15 K	1197.2 ± 1.5	13.06 ± 0.3
363.15 K	1194.1 ± 1.5	11.69 ± 0.27
368.15 K	1191.1 ± 1.5	10.52 ± 0.24
373.15 K	1188.2 ± 1.5	9.518 ± 0.22
